From the supplement of paper PMC10307832

Assays:
Test in all cases: relative viability (nuclei count vs DMSO), 5 days (fraction); higher = more cells survive
NVP-TAE684 + Linsitinib = compound: COc1cc(N2CCC(N3CCN(C)CC3)CC2)ccc1Nc1ncc(Cl)c(Nc2ccccc2S(=O)(=O)C(C)C)n1 [NVP-TAE684] + C[C@]1(O)C[C@@H](c2nc(-c3ccc4ccc(-c5ccccc5)nc4c3)c3c(N)nccn32)C1 [Linsitinib] (partner 1 µM)
Summary of the method: (§1)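 Five library-drug doses in √10 steps were combined with a fixed anchor-drug dose, or a single drug was given alone, by pin tool to lung cancer cell lines in 1536-well plates the day after seeding. Nuclei were stained and counted after 5 days. Relative viability is the nuclei count in treated wells over that in vehicle wells, taken as the median of duplicate plates.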

[1] = compound: C1=CC=C2C(=C1)N=C(S2)C(C#N)C3=NC(=NC=C3)NCCC4=CN=CC=C4 + COc1cccc2cc(-c3nc([C@H]4CC[C@H](C(=O)O)CC4)n4ncnc(N)c34)[nH]c12 [OSI-027] (partner 0.5 µM)
Summary of the method: as §1

[2] = compound: C1=CC=C2C(=C1)N=C(S2)C(C#N)C3=NC(=NC=C3)NCCC4=CN=CC=C4 + Cc1cc(Nc2cc(N3CCN(C)CC3)nc(Sc3ccc(NC(=O)C4CC4)cc3)n2)n[nH]1 [Tozasertib] (partner 0.1 µM)
Summary of the method: as §1

NVP-TAE684 + Trametinib = compound: COc1cc(N2CCC(N3CCN(C)CC3)CC2)ccc1Nc1ncc(Cl)c(Nc2ccccc2S(=O)(=O)C(C)C)n1 [NVP-TAE684] + CC(=O)Nc1cccc(-n2c(=O)n(C3CC3)c(=O)c3c(Nc4ccc(I)cc4F)n(C)c(=O)c(C)c32)c1 [Trametinib] (partner 0.02 µM)
Summary of the method: as §1

## UMC-11
NVP-TAE684 + Linsitinib; first compound 0.2 µM
  relative viability: 1.14
NVP-TAE684 + Linsitinib; first compound 0.6325 µM
  relative viability: 0.904
NVP-TAE684 + Linsitinib; first compound 2 µM
  relative viability: 0.282
[1]; first compound 0.005 µM
  relative viability: 0.408
[1]; first compound 0.01581 µM
  relative viability: 0.493
[1]; first compound 0.05 µM
  relative viability: 0.445
[1]; first compound 0.1581 µM
  relative viability: 0.468
[1]; first compound 0.5 µM
  relative viability: 0.35
[2]; first compound 0.005 µM
  relative viability: 0.212
[2]; first compound 0.01581 µM
  relative viability: 0.214
[2]; first compound 0.05 µM
  relative viability: 0.177
[2]; first compound 0.1581 µM
  relative viability: 0.249
[2]; first compound 0.5 µM
  relative viability: 0.206
NVP-TAE684 + Trametinib; first compound 0.2 µM
  relative viability: 0.701
NVP-TAE684 + Trametinib; first compound 0.6325 µM
  relative viability: 0.636
NVP-TAE684 + Trametinib; first compound 2 µM
  relative viability: 0.434
